# Several values for one entry are separate records, joined by “and”; a condition that tells them apart may be missing. Equal entries are not always repeated.
# System: 997537-175-T-J1-PDC complex spheroid viability
# Assay: Anticancer human tumor 997537-175-T-J1-PDC patient-derived colon adenocarcinoma cell line growth inhibition [GQUAD]
# Conditions: for viability, T/C: stronger effect = lower value
# Source text: DNA G-quadruplex Stabilizer Agents in Combinations in Complex Spheroids
# A high-throughput screen of multi-cell type tumor spheroids was designed to identify active combinations of DNA G-quadruplex stabilizer agents and targeted small molecules. Complex spheroids include a stromal component modeled by human endothelial cells (HUVEC) and fibroblasts modeled by human mesenchymal stem cells (MSCs). The concentration ranges selected for each drug and investigational agent were based upon clinically achievable concentrations if the clinical Cmax of the agent was known.
# Compounds. The drugs and investigational agents: pidnarulex (CX-5461; NSC782164), APTO-253 (NSC789042), BRACO-19 (NSC847499), peposertib (NSC802822), ceralasertib (NSC780249), elimusertib (NSC800525), camonsertib (NSC841442), AZD-1390 (NSC803789), olaparib (NSC753686), talazoparib (NSC767125), ART-558 (NSC835418), sotorasib (NSC818433), MRTX-1133 (NSC836407), SN-38 (NSC673596), topotecan (NSC609699), etoposide (NSC141540), doxorubicin (NSC123127), gemcitabine (NSC613327), 5-fluorouracil (NSC19893), paclitaxel (NSC125973), vemurafenib (NSC761431), panobinostat (NSC761190), R-306465 (JNJ-16241199; NSC773264), adavosertib (NSC754352), TP-3654 (NSC805149), carboplatin (NSC241240), KSQ-4279 (NSC840948), and staurosporine (NSC755774) were obtained from the National Cancer Institute (NCI) Developmental Therapeutics Program Chemical Repository (34). The FDA-approved anticancer drug set is available from the NCI Developmental Therapeutics Program. […] The stock solutions were prepared in dimethyl sulfoxide (DMSO, Sigma-Aldrich, St. Louis, MO, cat. D2650) at 800-fold the tested concentration and stored at -70 degrees C prior to their use. All drugs and investigational agents were tested over a range starting from a high concentration at or near the clinical Cmax and decreasing in half-log increments. If the clinical Cmax for an agent had not been determined, the highest concentration tested was 10 microM.
# 2.3 Cell Culture. All cells were maintained in an incubator at 37 degrees C and 5% CO2 with 95% humidity. The PDC lines were cultured according to standard operating procedures established by the NCI PDMR. All PDCs were thawed and cultured in Matrigel-coated flasks prepared with a working solution of 1X Ham's F-12 nutrient mix, without supplementation (Invitrogen, cat. 11765054), 100 U/mL penicillin-streptomycin (Invitrogen, cat. 15140122), and 2.5% Matrigel (Corning Inc., cat. 354248) for the first three passages. The 857933-349-R-J2-PDC line was cultured in 6C/Colon 1B media, which includes advanced DMEM/F-12 (Thermo Fisher Scientific, cat. 12634028), 10 mM HEPES (Thermo Fisher Scientific, cat. 15630080), 1X GlutaMAX supplement (Thermo Fisher Scientific, cat. 35050061), 0.1 mg/mL primocin (InvivoGen, cat. ant-pm-2), 10% defined fetal bovine serum, heat inactivated (HyClone Laboratories Inc., cat. SH30070.03HI), 50% L-WRN conditioned media (ATCC, cat. CRL-3276), 1.25 mM N-Acetyl-L-cysteine (Sigma-Aldrich, cat. A9165), 10 mM nicotinamide (Sigma-Aldrich, cat. N0636), 1X B-27 supplement (Thermo Fisher Scientific, cat. 17504044), 1X N-2 supplement (Thermo Fisher Scientific, cat. 17502048), 10 microM Y-27632 dihydrochloride (Tocris Bioscience, cat. 1254), and 50 ng/mL human EGF recombinant protein (Thermo Fisher Scientific, cat. PHG0311). The 485176-168-R4-J1-PDC line was cultured in Panc media, which includes all 6C/Colon 1B media components plus 100 ng/mL human FGF-10 (Thermo Fisher Scientific, cat. 100-26), 500 nM SB-431542 (Selleckchem, cat. S1067), and gastrin (Tocris, cat. 3006).
# […]
# 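Further: spheroids exposed to the agents for 7 days.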
# 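Wherever viability, T/C is given: 100% = DMSO vehicle control viability.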
smiles,measurement,setting,value
C#Cc1c(F)ccc2cc(O)cc(-c3ncc4c(N5CC6CCC(C5)N6)nc(OCC56CCCN5CC(F)C6)nc4c3F)c12 (stereo not drawn),"viability, T/C",compound 0.0316 µM,89% and 91.8% and 98.1%
same,"viability, T/C",compound 0.1 µM,89.1% and 92.2% and 103%
same,"viability, T/C",compound 0.316 µM,104% and 94.8% and 102%
same,"viability, T/C",compound 1 µM,99.4% and 67.4% and 107%
same,"viability, T/C",compound 3.16 µM,88.9% and 38.7% and 91.8%
same,"viability, T/C",compound 10 µM,106% and 35.1% and 92.4%
same,IC50,curve of compound,> 10 µM and 1.94 µM
O=C(c1cc(Cc2n[nH]c(=O)c3ccccc23)ccc1F)N1CCN(C(=O)C2CC2)CC1,"viability, T/C",compound 0.0316 µM,106% and 94.3% and 90.2%
same,"viability, T/C",compound 0.1 µM,88% and 96.7% and 102%
same,"viability, T/C",compound 0.316 µM,94.6% and 102% and 107%
same,"viability, T/C",compound 1 µM,104% and 92.4% and 103%
same,"viability, T/C",compound 3.16 µM,102% and 64.4% and 79.6%
same,"viability, T/C",compound 10 µM,85.2% and 87.2% and 96.7%
same,IC50,curve of compound,> 10 µM
CC(C)n1c(=O)n(C)c2cnc3cc(F)c(-c4ccc(OCCCN5CCCCC5)nc4)cc3c21 + Cc1cnc(CNC(=O)c2c(=O)c3ccc(N4CCCN(C)CC4)nc3n3c2sc2ccccc23)cn1,IC50,"curve of first compound, second compound 0.0316 µM",> 10 µM
same,IC50,"curve of first compound, second compound 0.1 µM",> 10 µM
same,IC50,"curve of first compound, second compound 0.316 µM",> 10 µM
same,IC50,"curve of first compound, second compound 1 µM",> 10 µM
same,IC50,"curve of first compound, second compound 3.16 µM",> 10 µM
same,IC50,"curve of first compound, second compound 10 µM",> 10 µM
same,"viability, T/C","second compound 0.0316 µM, first compound 0.0316 µM",112%
same,"viability, T/C","second compound 0.0316 µM, first compound 0.1 µM",91.3%
same,"viability, T/C","second compound 0.0316 µM, first compound 0.316 µM",104%
same,"viability, T/C","second compound 0.0316 µM, first compound 1 µM",82.3%
same,"viability, T/C","second compound 0.0316 µM, first compound 3.16 µM",91.9%
same,"viability, T/C","second compound 0.0316 µM, first compound 10 µM",92.5%
same,"viability, T/C","second compound 0.1 µM, first compound 0.0316 µM",95%
same,"viability, T/C","second compound 0.1 µM, first compound 0.1 µM",95.9%
same,"viability, T/C","second compound 0.1 µM, first compound 0.316 µM",91.5%
same,"viability, T/C","second compound 0.1 µM, first compound 1 µM",82.4%
same,"viability, T/C","second compound 0.1 µM, first compound 3.16 µM",82.6%
same,"viability, T/C","second compound 0.1 µM, first compound 10 µM",90.9%
same,"viability, T/C","second compound 0.316 µM, first compound 0.0316 µM",101%
same,"viability, T/C","second compound 0.316 µM, first compound 0.1 µM",74%
same,"viability, T/C","second compound 0.316 µM, first compound 0.316 µM",101%
same,"viability, T/C","second compound 0.316 µM, first compound 1 µM",84.8%
same,"viability, T/C","second compound 0.316 µM, first compound 3.16 µM",108%
same,"viability, T/C","second compound 0.316 µM, first compound 10 µM",93.3%
same,"viability, T/C","second compound 1 µM, first compound 0.0316 µM",95.6%
same,"viability, T/C","second compound 1 µM, first compound 0.1 µM",113%
same,"viability, T/C","second compound 1 µM, first compound 0.316 µM",111%
same,"viability, T/C","second compound 1 µM, first compound 1 µM",80%
same,"viability, T/C","second compound 1 µM, first compound 3.16 µM",114%
same,"viability, T/C","second compound 1 µM, first compound 10 µM",105%
same,"viability, T/C","second compound 3.16 µM, first compound 0.0316 µM",87%
same,"viability, T/C","second compound 3.16 µM, first compound 0.1 µM",104%
same,"viability, T/C","second compound 3.16 µM, first compound 0.316 µM",108%
same,"viability, T/C","second compound 3.16 µM, first compound 1 µM",105%
same,"viability, T/C","second compound 3.16 µM, first compound 3.16 µM",122%
same,"viability, T/C","second compound 3.16 µM, first compound 10 µM",110%
same,"viability, T/C","second compound 10 µM, first compound 0.0316 µM",87.8%
same,"viability, T/C","second compound 10 µM, first compound 0.1 µM",93.4%
same,"viability, T/C","second compound 10 µM, first compound 0.316 µM",106%
same,"viability, T/C","second compound 10 µM, first compound 1 µM",116%
same,"viability, T/C","second compound 10 µM, first compound 3.16 µM",98.5%
same,"viability, T/C","second compound 10 µM, first compound 10 µM",107%
Cc1[nH]c2ccccc2c1CCNCc1ccc(/C=C/C(=O)NO)cc1,"viability, T/C",compound 0.000999 µM,93.4% and 96.3% and 94.4%
same,"viability, T/C",compound 0.00316 µM,101% and 94.2% and 106%
same,"viability, T/C",compound 0.00999 µM,110% and 59.3% and 109%
same,"viability, T/C",compound 0.0316 µM,105% and 87.4% and 93.1%
same,"viability, T/C",compound 0.0999 µM,100% and 86.6% and 92.4%
same,"viability, T/C",compound 0.316 µM,87.6% and 50% and 52%
same,IC50,curve of compound,> 0.316 µM and 0.316 µM

# — PubChem BioAssay AID2060487 (Molecular Pharmacology Branch, DTP, NCI, 2025)
